Among the data in paper PMC6934184, “Selective DNA-PKcs inhibition extends the therapeutic index of localized radiotherapy and chemotherapy” (The Journal of Clinical Investigation, 2019) are IC50 values, retold here.

The structures appear in SMILES notation.

This assay addresses DNA-PK (Homo sapiens, UniProt P78527). The experiment in a line: radiation-induced phospho-DNA-PK Ser2056 in MCF7 cells, Western blot. The following applies: 1 h pretreatment, 30 min after 10 Gy IR, read-out: IC50, radiation-induced activation of DNA-PK (phospho–DNA-PK Ser2056). It is filed as cell-based. The arrangement: endogenous in cells; host or cells: MCF7. As to the method:
Exponentially growing MCF7 cells were exposed to a range of concentrations of NU5455 and NU7441 (0.03–10 μM) for 1 hour. To assess the ability of NU5455 and NU7441 to inhibit autophosphorylation of DNA-PKcs at Ser2056, cells were treated with 10 Gy irradiation and incubated for 30 minutes. Alternatively, to investigate the effects of NU5455 and NU7441 against PI3K-dependent phosphorylation of AKT at Ser473, cells were treated with 50 ng/mL insulin-like growth factor-1 (IGF-1; Invitrogen) for 30 minutes. Cell lysates were prepared for the detection of p–DNA-PKcs Ser2056 and total DNA-PKcs, or p–AKT Ser473 and total AKT, respectively, using Western blotting. […]
Protein lysates were quantified using the Pierce BCA Protein Assay (ThermoFisher). […]
Membranes were then washed in TBST and incubated with HRP-conjugated goat anti-mouse or anti-rabbit antibodies (P0447 and P0448 respectively, Dako) in 5% (w/v) milk/TBST at room temperature for 1-2 hours. Conjugates were detected using Clarity Western ECL Substrate (BioRad) and chemiluminescence imaged using the Fuji LAS-3000 Luminescent Image Analyzer System (Fujifilm). […]
Alternatively, basal pAKT Ser473 levels were subtracted from all other pAKT bands, and pAKT band intensity calculated relative to total AKT expression and given as a percentage relative to IGF-1 stimulated, DMSO-treated cells. […]
For orientation: In western blotting, separated proteins are transferred to a membrane and probed.

One may read the IC50 as the concentration needed to halve the response being measured. `CN(C(=O)CN1CCOCC1)c1ccc2sc3c(-c4cccc5c(=O)cc(N6CC7CCC(C6)O7)oc45)cccc3c2c1` [NU5455]: the IC50 worked out at 168 nM.
